Test results taken from patent publication US10098853B2, “Composition for treating atherosclerosis and a preparation method thereof” (KAOHSIUNG MEDICAL UNIVERSITY, priority 2011, dated 2018).
Entries after “also recorded” stand apart in the source; their conditions may differ.

Assays:
cyclin D3 = assay: Cyclin D3 protein expression in Ox-LDL treated HASMCs (immunoblotting); type: cell-based, human; details: FIG. 9, PD98059 10^−5 M, compound 1 5 μg/ml, rosiglitazone 5 μg/ml, Ox-LDL 30 μg/ml, 8 hours
Description: (§1) Three independent experiments are made in each group.

cyclin D1 = assay: Cyclin D1 protein expression in Ox-LDL treated HASMCs (immunoblotting); type: cell-based, human; details: FIG. 9, PD98059 10^−5 M, compound 1 5 μg/ml, rosiglitazone 5 μg/ml, Ox-LDL 30 μg/ml, 8 hours
Description: as §1

Ki-67 protein = Ki-67 protein immunofluorescence in Ox-LDL stimulated HASMCs; type: cell-based, human; details: Ox-LDL 30 μg/ml, 24 hours; for positive stains of Ki-67: compound 1 5 μg/ml or PD98059 10^−5 M
Procedure: For analyzing the mechanisms of compound 1 on inhibiting HASMCs proliferation, the cellular marker for proliferation, Ki-67 protein (also known as MKI67), detected with green fluorescence was the index for HASMCs proliferation. The experiment method was to stimulate HASMCs with Ox-LDL (30 μg/ml) for 24 hours, and simultaneously compound 1 (5 μg/ml) or PD98059 (an ERK 1/2 inhibitor, 10^−5 M) was added. A mouse anti-Ki-67 monoclonal antibody was combined with a DyLight™488-conjugated second antibody to confirm the HASMCs proliferation. DAPI (4′,6-diamidino-2-phenylindole), a fluorescent stain that binds strongly to DNA, was used to localize cell nuclei. Cells were observed under flourescence microscopy. The proliferative cells were quantified by counting the ratio of DyLight™488 (green) fluorescence and DAPI (blue) fluorescence.

PPARα = PPARα mRNA expression in HASMCs (real-time PCR); type: cell-based, human; details: FIG. 6(b); with Ox-LDL 30 μg/ml, compound 1 5 μg/ml, 2, 4, 8 and 24 hours
PPARγ [1] = assay: PPARγ mRNA expression in HASMCs (real-time PCR); type: cell-based, human
Procedure: The anti-inflammatory effect of compound 1 was determined by the mRNA expressions of IL-1β and IL-6. HASMCs were stimulated with Ox-LDL (30 μg/ml) for 8 hours, and simultaneously treated with (i) PD98059 (5 μg/ml), (ii) rosiglitazone (5 μg/ml), (iii) compound 1 (5 μg/ml) and (iv) rosiglitazone (5 μg/ml) plus compound 1 (5 μg/ml). […] SEQ ID Nos: 1 and 2 were paired in amplification of IL-1β gene, SEQ ID Nos: 3 and 4 were paired in amplification of IL-6 gene, SEQ ID Nos: 5 and 6 were paired in amplification of PPARα gene, SEQ ID Nos: 7 and 8 were paired in amplification of PPARγ gene, and SEQ ID Nos: 9 and 10 were paired in amplification of β-actin gene.
This experiment was performed to investigate the regulatory mechanism of compound 1 on PPARγ based on PPARγ mRNA expression in HASMCs. […]

[2] = test system: human aortic smooth muscle cells (HASMCs); assay: HASMCs proliferation induced by LPS (WST-1); type: cell-based
Procedure: First, HASMCs were seeded into 96-well plates.
Chalcone compounds 1 to 29 at different concentrations prepared in Experiment 1 were used to determine the effect of HASMCs proliferation induced by LPS. […] In reference to the drug concentration for cytotoxicity that HASMCs tolerate, the chalcone compounds having the relevant substituents to compound 1 were selected (rather than all chalcone compounds) to compare with each other at the same concentration.

[3] = test system: human aortic smooth muscle cells (HASMCs); assay: HASMCs proliferation and cell viability induced by Ox-LDL (WST-1); details: FIG. 2; 1, 2.5 and 5 μg/ml, Ox-LDL 30 μg/ml, 24 hours
Procedure: For analyzing whether each genus of flavonoid compounds could inhibit the activity of HASMCs proliferation, the proliferation and cell viability of HASMCs were determined using WST-1 reagent (Roche Applied Science, Penzberg, Germany). WST-1 is a tetrazolium salt that will be cleaved to formazan by mitochondrial dehydrogenases in viable cells. First, HASMCs were seeded into 96-well plates. […] At the end of incubation, WST-1 was added into cell medium and the amount of formazan was measured at a wavelength of 450 nm by an ELISA reader.

PPARγ [4] = assay: PPARγ protein expression in HASMCs (immunoblotting); type: cell-based, human; details: FIG. 7(b); compound 1 alone, 0, 1, 2.5 and 5 μg/ml, 4 and 8 hours
Procedure: FIG. 7(a) and FIG. 7(b) respectively are (a) the diagram showing PPARγ mRNA expression and (b) an immunoblotting spectrum showing the PPARγ protein expression of compound 1 (0, 1, 2.5 and 5 μg/ml) on HASMCs for 4 and 8 hours. Data are represented as mean±S.D. in three independent experiments. a: p<0.001, b: p<0.01.
To further confirm whether compound 1 is an inducer of PPARγ for HASMCs, cells were stimulated with compound 1 alone.

CN(CCOc1ccc(CC2SC(=O)NC2=O)cc1)c1ccccn1 (racemic) [rosiglitazone, (RS)-5-[4-(2-[methyl(pyridin-2-yl)amino]ethoxy)benzyl]thiazolidine-2,4-dione]
cyclin D3 protein expression induced by Ox-LDL (cyclin D3): did not significantly decrease cyclin D1 and D3 protein expression; also recorded: but not PD98059 and rosiglitazone, significantly decreased the cyclin D1 and D3 upregulation | cyclin D1 protein expression induced by Ox-LDL (cyclin D1): did not significantly decrease cyclin D1 and D3 protein expression; also recorded: but not PD98059 and rosiglitazone, significantly decreased the cyclin D1 and D3 upregulation

COc1cccc(-c2cc(=O)c3ccccc3o2)c1N [PD98059, 2-(2-amino-3-methoxyphenyl)-chromen-4-one]
positive stains of Ki-67 (Ki-67 protein): decreased the positive stains of Ki-67 | cyclin D3 protein expression induced by Ox-LDL (cyclin D3): did not significantly decrease cyclin D1 and D3 protein expression; also recorded: but not PD98059 and rosiglitazone, significantly decreased the cyclin D1 and D3 upregulation | cyclin D1 protein expression induced by Ox-LDL (cyclin D1): did not significantly decrease cyclin D1 and D3 protein expression; also recorded: but not PD98059 and rosiglitazone, significantly decreased the cyclin D1 and D3 upregulation

COc1ccc(/C=C/C(=O)c2ccccc2O)cc1 [compound 1]
PPARα mRNA expression (PPARα): neither Ox-LDL nor compound 1 stimulated PPARα mRNA upregulation | reduction of proliferative (Ki-67 positive) cells compared to Ox-LDL stimulated HASMCs (Ki-67 protein; FIG. 3, 5 μg/ml): about 10% | positive stains of Ki-67 (Ki-67 protein): decreased the positive stains of Ki-67 | time at which maximum PPARγ mRNA expression was reached (PPARγ [1]; FIG. 6(a), with Ox-LDL 30 μg/ml, compound 1 5 μg/ml): 8 h | PPARγ mRNA expression (PPARγ [1]; FIG. 6(a), with Ox-LDL 30 μg/ml, compound 1 5 μg/ml, 2, 4, 8 and 24 hours): significantly increased PPARγ mRNA expression post 4 hours administration | PPARγ mRNA expression (PPARγ [1]; FIG. 7(a), compound 1 alone, 0, 1, 2.5 and 5 μg/ml, 4 and 8 hours): significantly increased PPARγ mRNA and protein expression in dose and time dependent manners | cyclin D3 protein expression induced by Ox-LDL (cyclin D3): significantly inhibited cyclin D1 and D3 protein upregulation induced by Ox-LDL | cyclin D3 protein expression induced by Ox-LDL (cyclin D3; listed as Compound 1): significantly decreased the cyclin D1 and D3 upregulation | cyclin D1 protein expression induced by Ox-LDL (cyclin D1): significantly inhibited cyclin D1 and D3 protein upregulation induced by Ox-LDL | cyclin D1 protein expression induced by Ox-LDL (cyclin D1; listed as Compound 1): significantly decreased the cyclin D1 and D3 upregulation | inhibition activity on HASMCs proliferation induced by LPS ([2]; FIG. 11(a), 5 μg/ml): compound 1 rather than compound 7 has inhibition activity | inhibition activity on HASMCs proliferation induced by LPS ([2]; FIG. 11(b), 2.5 μg/ml): compound 1 rather than compound 5 had inhibition activity | cytotoxicity to HASMCs ([2]; FIG. 11(c), 2 μg/ml): non-toxic to cells | inhibition activity on HASMCs proliferation induced by LPS ([2]; FIG. 11(c), 2 μg/ml): had the best inhibition activity | cell proliferation compared to Ox-LDL treatment group [3]: significantly decreased in a dose dependent manner | PPARγ protein expression (PPARγ [4]): significantly increased PPARγ mRNA and protein expression in dose and time dependent manners

O=C(/C=C/c1ccccc1)c1ccc(O)cc1O [compound 2]
cytotoxicity to HASMCs ([2]; FIG. 11(c), 2 μg/ml): would lead to death of a part cells

O=C(/C=C/c1ccc(OCc2ccccc2)cc1)c1ccc(O)cc1O [compound 3]
inhibition activity on HASMCs proliferation induced by LPS ([2]; FIG. 11(c), 2 μg/ml): compound 3 rather than compound 6 had inhibition activity

COc1cccc(/C=C/C(=O)c2ccccc2O)c1 [compound 4]
inhibition activity on HASMCs proliferation induced by LPS ([2]; FIG. 11(a), 5 μg/ml): both had the similar inhibition activity

COc1ccc(/C=C/C(=O)c2ccc(O)cc2O)cc1 [compound 5]
inhibition activity on HASMCs proliferation induced by LPS ([2]; FIG. 11(b), 2.5 μg/ml): compound 1 rather than compound 5 had inhibition activity

COc1cccc(/C=C/C(=O)c2ccc(O)cc2O)c1 [compound 6]
inhibition activity on HASMCs proliferation induced by LPS ([2]; FIG. 11(c), 2 μg/ml): compound 3 rather than compound 6 had inhibition activity

COc1ccc(/C=C/C(=O)c2ccccc2)cc1 [compound 7]
inhibition activity on HASMCs proliferation induced by LPS ([2]; FIG. 11(a), 5 μg/ml): compound 1 rather than compound 7 has inhibition activity

COc1cccc(/C=C/C(=O)c2ccccc2)c1 [compound 8]
inhibition activity on HASMCs proliferation induced by LPS ([2]; FIG. 11(c), 2 μg/ml): did not have inhibition activity

O=C(/C=C/c1ccccc1)c1ccccc1 [compound 9]
inhibition activity on HASMCs proliferation induced by LPS ([2]; FIG. 11(c), 2 μg/ml): showed no inhibition activity

O=C(/C=C/c1ccccc1)c1ccccc1O [compound 10]
inhibition activity on HASMCs proliferation induced by LPS ([2]; FIG. 11(b), 2.5 μg/ml): did not have inhibition activity

O=C(/C=C/c1cccc(OCc2ccccc2)c1)c1ccccc1O [compound 11]
cytotoxicity to HASMCs ([2]; FIG. 11(c), 2 μg/ml): would lead to death of a part cells

COc1ccc(/C=C/C(=O)c2ccccc2Br)cc1 [compound 12]
inhibition activity on HASMCs proliferation induced by LPS ([2]; FIG. 11(b), 2.5 μg/ml): compound 12 rather than compound 14 had inhibition activity

COc1cccc(/C=C/C(=O)c2cccc(Br)c2)c1 [compound 14]
inhibition activity on HASMCs proliferation induced by LPS ([2]; FIG. 11(b), 2.5 μg/ml): compound 12 rather than compound 14 had inhibition activity

COc1cccc(/C=C/C(=O)c2ccc(Cl)cc2)c1 [compound 15]
cytotoxicity to HASMCs ([2]; FIG. 11(c), 2 μg/ml): would lead to death of a part cells

O=C(/C=C/c1ccccc1)c1cc(Br)ccc1O [compound 19]
cytotoxicity to HASMCs ([2]; FIG. 11(a), 5 μg/ml): would lead to death of a part of cells | inhibition activity on HASMCs proliferation induced by LPS ([2]; FIG. 11(a), 5 μg/ml): had inhibition activity

COc1ccc(/C=C/C(=O)c2cc(Br)ccc2O)cc1 [compound 20]
cytotoxicity to HASMCs ([2]; FIG. 11(a), 5 μg/ml): would lead to death of a part of cells | inhibition activity on HASMCs proliferation induced by LPS ([2]; FIG. 11(a), 5 μg/ml): had inhibition activity

COc1cccc(/C=C/C(=O)c2cc(Br)ccc2O)c1 [compound 21]
cytotoxicity to HASMCs ([2]; FIG. 11(a), 5 μg/ml): would lead to death of a part of cells | inhibition activity on HASMCs proliferation induced by LPS ([2]; FIG. 11(a), 5 μg/ml): had inhibition activity

O=C(/C=C/c1cccc(OCc2ccccc2)c1)c1cc(Br)ccc1O [compound 22]
cytotoxicity to HASMCs ([2]; FIG. 11(c), 2 μg/ml): would lead to death of a part cells

O=C(/C=C/c1ccc(OCc2ccccc2)cc1)c1cc(Br)ccc1O [compound 23]
cytotoxicity to HASMCs ([2]; FIG. 11(a), 5 μg/ml): would lead to death of a part of cells | inhibition activity on HASMCs proliferation induced by LPS ([2]; FIG. 11(a), 5 μg/ml): had inhibition activity

O=C(/C=C/c1ccc(OCc2ccccc2)cc1)c1ccccc1O [compound 25]
cytotoxicity to HASMCs ([2]; FIG. 11(a), 5 μg/ml): would result in HASMC death

COc1ccc(/C=C/C(=O)c2ccccc2I)cc1 [compound 26]
inhibition activity on HASMCs proliferation induced by LPS ([2]; FIG. 11(b), 2.5 μg/ml): slightly better than that of compounds 26 and 28

COc1ccc(/C=C/C(=O)c2ccccc2F)cc1 [compound 27]
inhibition activity on HASMCs proliferation induced by LPS ([2]; FIG. 11(b), 2.5 μg/ml): inhibition activity of compound 1 was better than those of compounds 12 and 27

COc1ccc(/C=C/C(=O)c2ccccc2Cl)cc1 [compound 28]
inhibition activity on HASMCs proliferation induced by LPS ([2]; FIG. 11(b), 2.5 μg/ml): slightly better than that of compounds 26 and 28

O=C(/C=C/c1ccc(O)cc1)c1ccccc1 [compound 29]
inhibition activity on HASMCs proliferation induced by LPS ([2]; FIG. 11(c), 2 μg/ml): had no inhibition activity
